The results in this text go back to patent publication EP1900728A1 (Genecare Research Institute Co., Ltd, priority 2005, dated 2006).

Experiment [1] deals with T1, IκBα ubiquitinating enzyme (SCF complex: ROC1, Cullin1, Skp1, His-TrCP1; with E1, UbcH5b) (Homo sapiens, UniProt P62877+P63208+Q13616+Q9Y297).
T1 construct: His (polyhistidine); made in house; host or cells: insect cells (baculovirus) for the SCF complex and His-E1; E. coli for His-UBCH5b
Nature of the experiment: Measurement of ubiquitinating enzyme activity (IκBα ubiquitination, time-resolved fluorescence with Eu(K)-labeled ubiquitin and XL665-labeled anti-GST antibody). Type of experiment: biochemical. The gist of the method:
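Human SCF complex with E1 and UbcH5b ubiquitinated GST-IκBα pre-phosphorylated by IKKβ (2 mM ATP, pH 7.4, 1 h, RT), with Eu(K)-ubiquitin, 30 min RT. Stopped with EDTA, XL665 anti-GST added for 2 h; 665/620 nm TR-FRET ratio. % inhibition versus no-compound control and no-SCF blank gave IC50.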

Experiment [2] concerns ICAM-1 expression in HT-29 cells. In words: Measurement of ICAM-1 expressing activity (TNFα-induced ICAM-1 expression, cell ELISA). As to conditions: Homo sapiens, Table 6, cell activity inhibition test by method (3), read-out: EVALUATION (IC50 class, inhibition of cell activity). Type of experiment: cell-based. A digest of the protocol:
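HT-29 cells pretreated with compound (0.5% DMSO final) for 30 min at 37°C, then stimulated with 30 ng/mL human TNFα for 4 h. Surface ICAM-1 measured by cell ELISA on methanol-fixed cells: anti-ICAM-1 plus POD secondary, TMBZ substrate, absorbance at 450 nm.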
In general terms: ELISA stands for enzyme-linked immunosorbent assay.

[3] abbreviates: enzyme activity inhibition test, method (1), Table 5, read-out: EVALUATION

Where two headings read alike, the source gives them in different places.

T1 sequence (Q9Y297 whole entry): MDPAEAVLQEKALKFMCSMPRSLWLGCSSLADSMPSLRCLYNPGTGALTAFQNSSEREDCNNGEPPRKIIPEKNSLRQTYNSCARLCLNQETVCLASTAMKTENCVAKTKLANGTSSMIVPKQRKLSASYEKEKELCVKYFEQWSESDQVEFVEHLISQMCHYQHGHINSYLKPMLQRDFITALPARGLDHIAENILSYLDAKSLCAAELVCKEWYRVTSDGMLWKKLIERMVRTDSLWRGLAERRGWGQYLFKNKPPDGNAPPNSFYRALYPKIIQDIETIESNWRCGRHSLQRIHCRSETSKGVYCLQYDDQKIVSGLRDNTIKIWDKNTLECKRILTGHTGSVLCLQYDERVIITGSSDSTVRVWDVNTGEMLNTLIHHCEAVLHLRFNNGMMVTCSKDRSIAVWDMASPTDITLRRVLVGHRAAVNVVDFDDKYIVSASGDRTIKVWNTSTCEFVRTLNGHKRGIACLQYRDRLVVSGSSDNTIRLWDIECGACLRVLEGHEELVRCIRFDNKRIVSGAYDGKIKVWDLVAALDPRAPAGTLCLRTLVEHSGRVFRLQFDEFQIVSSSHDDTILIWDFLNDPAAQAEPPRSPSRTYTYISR
T1 sequence (Q13616 whole entry): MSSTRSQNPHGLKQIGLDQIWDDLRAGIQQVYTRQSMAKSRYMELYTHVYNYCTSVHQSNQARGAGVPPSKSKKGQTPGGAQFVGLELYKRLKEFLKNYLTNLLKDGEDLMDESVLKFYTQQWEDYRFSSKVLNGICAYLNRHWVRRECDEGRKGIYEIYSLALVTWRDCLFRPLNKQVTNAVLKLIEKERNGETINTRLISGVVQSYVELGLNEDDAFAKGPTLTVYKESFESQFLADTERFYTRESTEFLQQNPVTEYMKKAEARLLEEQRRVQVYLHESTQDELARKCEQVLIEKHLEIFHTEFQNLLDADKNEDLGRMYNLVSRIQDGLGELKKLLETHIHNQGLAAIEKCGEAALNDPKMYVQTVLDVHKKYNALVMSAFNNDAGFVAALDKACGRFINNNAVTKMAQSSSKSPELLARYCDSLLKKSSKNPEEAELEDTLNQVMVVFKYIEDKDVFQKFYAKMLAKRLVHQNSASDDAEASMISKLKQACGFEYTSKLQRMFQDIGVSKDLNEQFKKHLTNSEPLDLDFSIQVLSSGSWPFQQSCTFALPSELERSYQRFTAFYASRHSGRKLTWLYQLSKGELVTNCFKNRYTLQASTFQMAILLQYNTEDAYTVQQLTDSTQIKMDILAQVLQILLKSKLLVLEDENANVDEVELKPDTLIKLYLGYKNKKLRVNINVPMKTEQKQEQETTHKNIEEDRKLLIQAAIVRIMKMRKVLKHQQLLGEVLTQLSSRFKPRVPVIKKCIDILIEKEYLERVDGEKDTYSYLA
T1 sequence (P63208 whole entry): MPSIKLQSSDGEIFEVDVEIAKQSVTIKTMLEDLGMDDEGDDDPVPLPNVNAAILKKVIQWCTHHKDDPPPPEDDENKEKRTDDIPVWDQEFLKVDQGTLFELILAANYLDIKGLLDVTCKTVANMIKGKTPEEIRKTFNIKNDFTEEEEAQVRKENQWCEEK
T1 sequence (P62877 whole entry): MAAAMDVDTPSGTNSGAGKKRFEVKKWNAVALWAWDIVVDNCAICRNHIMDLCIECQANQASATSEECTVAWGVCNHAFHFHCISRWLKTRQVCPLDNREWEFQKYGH

Regarding `O=C(O)c1cccc(N2N=C(c3ccoc3)C(=Cc3ccc4[nH]ccc4c3)C2=O)c1` [Compound 475, 3-(3-Furan-3-yl-4-(1H-indol-ylmethylene)-5-oxo-4,5-dihydropyrazol-1-yl) benzoic acid], the IC50 was under 10 µM in experiment [1] (read-out: EVALUATION, enzyme activity inhibition test, method (1), Table 5) and 10 to 20 µM in experiment [2].
On to `COCC1=NN(c2ccccc2)C(=O)/C1=C\c1ccc(-c2ccccc2F)o1` [Compound 6], for which the IC50 is 10 to 20 µM in experiment [1] (setting [3]) and under 40 µM in experiment [2].
The like results for `COc1cc(/C=C2\C(=O)N(c3cccc(C(=O)O)c3)N=C2C)ccc1OCC1CCCCC1` [Compound 407] were, in that order, 10 to 20 µM and under 40 µM.
As for `O=C(O)c1ccc(N2N=C(c3ccoc3)/C(=C/c3ccc(-c4ccccc4F)o3)C2=O)cc1` [Compound 246], the IC50 in experiment [1] (setting [3]) and in experiment [2] was under 10 µM each time.
On to `CC(=O)c1ccc(-c2ccc(/C=C3\C(=O)N(c4cccc(C(=O)O)c4)N=C3C)o2)cc1` [Compound 504], for which the IC50 in experiment [1] (setting [3]) and in experiment [2] was 10 to 20 µM throughout.
In the case of `COc1cc(/C=C2\C(=O)N(c3ccc(S(N)(=O)=O)cc3)N=C2C)ccc1OS(=O)(=O)c1ccc(C)cc1` [Compound 202], the figures for the IC50 in experiment [1] (setting [3]) and in experiment [2] were 10 to 20 µM and under 40 µM, respectively.
The like results for `O=C(O)c1ccc(N2N=C(c3ccoc3)/C(=C/c3ccc(-c4cnn(Cc5ccccc5)c4)o3)C2=O)cc1` [Compound 492] were, in that order, under 10 µM and 10 to 20 µM.
For the molecule `CCCCC1=NN(c2ccc(C(=O)O)cc2)C(=O)/C1=C\c1ccc(N2CCC(CO)CC2)cc1` [Compound 443], the IC50 was under 10 µM in experiment [1] (setting [3]) and 10 to 20 µM in experiment [2].
For the molecule `COc1ccc(C2=NN(c3ccc(C(=O)O)cc3)C(=O)C2=Cc2ccc(O)c(OC)c2)cc1` [Compound 324], the IC50 in experiment [1] and in experiment [2] was under 10 µM each time.
Regarding `O=C(O)c1ccc(N2N=C(C3CC3)/C(=C/c3ccc(-n4cncn4)cc3)C2=O)cc1` [Compound 323], the IC50 in experiment [1] (setting [3]) was under 10 µM; in experiment [2], under 40 µM.
The like results for `O=C(O)c1cccc(N2N=C(c3ccoc3)/C(=C/c3ccc(-c4cnn(Cc5ccccc5)c4)o3)C2=O)c1` [Compound 490] were, in that order, under 10 µM and 10 to 20 µM.
The like results for `CCCCC1=NN(c2ccccc2)C(=O)/C1=C\c1ccc(CO)o1` [Compound 56] were, in that order, 10 to 20 µM and 10 to 20 µM.
On to `CCCCC1=NN(c2ccccc2)C(=O)C1=Cc1ccc(-n2cccn2)cc1` [Compound 58], for which the IC50 is under 10 µM in experiment [1] and under 40 µM in experiment [2].
Turning to `CC1=NN(c2ccc(S(N)(=O)=O)cc2)C(=O)C1=Cc1ccc(O)cc1` [Compound 218], the IC50 was 10 to 20 µM in experiment [1] (setting [3]) and under 40 µM in experiment [2].
As for `COC(=O)N1CCN(c2ccc(C=C3C(=O)N(c4ccc(C(=O)O)cc4)N=C3c3cccnc3)cc2)CC1` [Compound 307], the IC50 is 10 to 20 µM in experiment [1] and under 40 µM in experiment [2].
In the case of `CCOC(=O)c1ccc(COc2ccc(/C=C3\C(=O)N(c4ccc(S(N)(=O)=O)cc4)N=C3C)cc2OC)o1` [Compound 154], the IC50 in experiment [1] (setting [3]) and in experiment [2] was under 10 µM in each case.
For `O=C(O)c1ccc(N2N=C(c3cccnc3)/C(=C/c3ccc(CO)o3)C2=O)cc1` [Compound 308], the IC50 is under 10 µM in experiment [1] (setting [3]) and under 40 µM in experiment [2].
Consider `COc1cc(C=C2C(=O)N(c3ccc(C(=O)O)cc3)N=C2c2ccc(F)cc2)ccc1OCc1ccccc1` [Compound 326], for which the figures for the IC50 in experiment [1] and in experiment [2] were under 10 µM and under 40 µM, respectively.
On to `CCOC(=O)COc1ccc(/C=C2\C(=O)N(c3ccc(C(=O)O)cc3)N=C2C)cc1` [Compound 540], for which the IC50 is under 10 µM in experiment [1] (setting [3]) and under 40 µM in experiment [2].
The like results for `CC1=NN(c2cccc(C(=O)O)c2)C(=O)/C1=C\c1ccc(N2CCN(c3ccc(F)cc3)CC2)cc1` [Compound 449] were, in that order, under 10 µM and 10 to 20 µM.
Turning to `COc1cccc(-c2ccc(/C=C3\C(=O)N(c4cccc(C(=O)O)c4)N=C3C)o2)c1` [Compound 503], the values for the IC50 in experiment [1] (setting [3]) and in experiment [2] were 10 to 20 µM and under 10 µM, respectively.
The like results for `CC1=NN(c2ccc(C(=O)O)cc2)C(=O)/C1=C\c1ccc(OCC(=O)Nc2ccccc2)cc1` [Compound 537] were, in that order, under 10 µM and under 40 µM.
The like results for `COC(=O)c1ccc(COc2ccc(/C=C3\C(=O)N(c4ccc(S(N)(=O)=O)cc4)N=C3C)cc2OC)cc1` [Compound 120] were, in that order, under 10 µM and under 40 µM.
The like results for `CC1=NN(c2ccc(S(N)(=O)=O)cc2)C(=O)/C1=C\c1ccccc1OS(=O)(=O)c1ccc(C)cc1` [Compound 220] were, in that order, 10 to 20 µM and under 10 µM.
For `COc1cc(/C=C2\C(=O)N(Cc3cccc(O)c3)N=C2C)ccc1O` [Compound 128], the results for the IC50 in experiment [1] (setting [3]) and in experiment [2] were 10 to 20 µM and under 10 µM, respectively.
The like results for `COc1cc(/C=C2\C(=O)N(c3ccccc3)N=C2Cc2ccccc2)ccc1OCc1ccccc1` [Compound 24] were, in that order, 10 to 20 µM and under 40 µM.
As for `COCC1=NN(c2ccc(C(=O)O)cc2)C(=O)/C1=C\c1ccc(-n2cncn2)cc1` [Compound 243], the IC50 in experiment [1] (setting [3]) and in experiment [2] was under 10 µM throughout.
In the case of `CC1=NN(c2ccc(C(=O)O)cc2)C(=O)/C1=C\c1ccc(F)cc1` [Compound 351], the IC50 in experiment [1] (setting [3]) is 10 to 20 µM; in experiment [2] it was under 40 µM.
The like results for `O=C(O)c1ccc(N2N=C(C3CC3)/C(=C/c3ccc(N4CCCC4)cc3)C2=O)cc1` [Compound 317] were, in that order, 10 to 20 µM and 10 to 20 µM.
With `COC(=O)c1ccc(COc2ccc(C=C3C(=O)N(c4ccc(C(=O)O)cc4)N=C3C)cc2OC)cc1` [Compound 347], the IC50 was under 10 µM in experiment [1] and 10 to 20 µM in experiment [2].
The like results for `O=C(O)c1ccc(N2N=C(c3ccoc3)C(=Cc3ccc(N4CCN(c5ccccc5)CC4)cc3)C2=O)cc1` [Compound 433] were, in that order, under 10 µM and under 10 µM.
The like results for `COC(=O)N1CCN(c2ccc(C=C3C(=O)N(c4ccc(C(=O)O)cc4)N=C3c3ccoc3)cc2)CC1` [Compound 245] were, in that order, under 10 µM and 10 to 20 µM.
`CC1=NN(c2ccc(S(N)(=O)=O)cc2)C(=O)/C1=C\c1ccc2cc[nH]c2c1` [Compound 148]: the IC50 was under 10 µM in experiment [1] (setting [3]) and under 40 µM in experiment [2].
Regarding `CC1=NN(c2ccc(S(N)(=O)=O)cc2)C(=O)C1=Cc1ccc(NC(=O)c2ccc(F)cc2)cc1` [Compound 226], the figures for the IC50 in experiment [1] and in experiment [2] were under 10 µM and 10 to 20 µM, respectively.
The like results for `COc1ccc(C2=NN(c3ccc(C(=O)O)cc3)C(=O)C2=Cc2ccc3ccccc3c2)cc1OC` [Compound 333] were, in that order, 10 to 20 µM and 10 to 20 µM.
The like results for `CC1=NN(c2ccc(S(N)(=O)=O)cc2)C(=O)C1=Cc1cccc2ccccc12` [Compound 119] were, in that order, 10 to 20 µM and under 10 µM.
As to `COC(=O)N1CCN(c2ccc(/C=C3\C(=O)N(c4ccc(C(=O)O)cc4)N=C3c3ccc(OC)c(OC)c3)cc2)CC1` [Compound 279], the IC50 in experiment [1] (setting [3]) is under 10 µM; in experiment [2] it was 10 to 20 µM.
`COc1cc(C=C2C(=O)N(Cc3ccccc3)N=C2C)ccc1O` [Compound 201]: the IC50 in experiment [1] is under 10 µM; in experiment [2], 10 to 20 µM.
Regarding `COc1cc(/C=C2\C(=O)N(c3ccccc3)N=C2c2ccoc2)ccc1O` [Compound 11], the IC50 in experiment [1] (setting [3]) is under 10 µM; in experiment [2], under 40 µM.
The like results for `CC1=NN(c2cccc(C(=O)O)c2)C(=O)/C1=C\c1ccc2c(ccn2C(=O)c2ccco2)c1` [Compound 531] were, in that order, under 10 µM and under 40 µM.
